Reference: patent publication US12383527B2, “Methods for treating triple negative breast cancer using salvianolic acid B” (HOWARD UNIVERSITY, priority 2018, dated 2025)

Columns and labels:
MDA-MB-231 cells [1] = assay: Colony formation assay; format: cell-based, human; conditions: colonies grown 10 days
Description: Colony formation assay. The inhibitory effect of Sal-B was further confirmed by colony formation assay. The colony formation assay was performed as described previously (Hao Y, et al., “Enforced expression of miR-101 inhibits prostate cancer cell growth by modulating the COX-2 pathway in vivo,” Cancer Prev Res (Phila). 2011; 4: 1073-1083). Briefly, MDA cells were seeded at a density of 300 cells per well in 6-well plates, cultured overnight, and then treated with Sal-B at different concentrations (1, 10, 20, 50, and 100 μM) for 24 hours. Following treatment, the old medium containing Sal-B was replaced with fresh drug-free media and the cells were allowed to grow for 10 days to permit colony formation from viable clonogenic cells. Colonies were stained with 0.1% trypan blue in 50% ethanol and were counted manually under microscopy with a grid printed on a transparent plastic sheet to keep track of colonies counted. The colonies containing more than 50 cells were considered to represent a viable clonogenic cell. The experiment was completed in triplicate for each treatment.

MCF-7 cells = assay: Cell cycle profile analysis by flow cytometry; format: cell-based, human; conditions: Sal-B 50 μM and 100 μM, 24 hours
Description: (§1) Cell cycle profile analysis using flow cytometry and Western blot analysis. To understand the effects of Sal-B on the cell cycle of cancer cells, the cell cycle profile was analyzed using flow cytometry. The cells from both cell lines were treated with Sal-B (50 and 100 µM) or doxorubicin (0.1 and 1 μM) for 24 hours and then fixed in chilled 80% ethanol. The fixed cells were incubated in a solution containing 100 μg/mL RNase at 37° C. water bath for 45 minutes. Propidium iodide (final concentration of 50 μg/ml) was then added to the cells and incubated in a 37° C. water bath for another 15 minutes. The analysis was carried out with a FACStar flow cytometer (Becton Dickinson, San Jose, CA). Ten thousand cells per sample were analyzed, cach sample was done in triplicate and the experiment was repeated three times.

MDA-MB-231 cells [2] = assay: Cell cycle profile analysis by flow cytometry; format: cell-based, human; conditions: Sal-B 50 μM and 100 μM, 24 hours
Description: as §1

[3] = test system: proliferating cell nuclear antigen (PCNA); assay: Immunohistochemical staining of PCNA in MDA tumor xenografts; format: in vivo, athymic nude mice; conditions: Sal-B 80 mg/kg three times per week; versus untreated; P<0.05
Description: (§2) Human tumor xenografts in athymic nude mice. […] The animal protocol was approved by the Howard University Animal Care and Use Committee. Four-week-old female athymic nude mice (Nu/Nu) were obtained from Harlan Sprague Dawley (Indianapolis, IN). All mice were provided the Harlan Teklad #2018 Global 18% protein rodent diet and water ad libitum. Mice were housed in temperature-controlled rooms (74±2° F.) with a 12-hour alternating light-dark cycle. MDA cells (3×10^6/50 μL/spot) were subcutaneously injected into the both sides of lower back of mice using a 27-gauge needle. […]
Immunohistochemical staining was performed as described previously (Hao Y, et al., “Enforced expression of miR-101 inhibits prostate cancer cell growth by modulating the COX-2 pathway in vivo,” Cancer Prev Res (Phila), 2011; 4: 1073-1083). […] For the quantification, ten high-magnification (40×) fields were randomly selected from each slide of tumors and the positive cells were counted. The protein expression was expressed as the average number of positive cells per high magnification field.

MDA tumor xenografts = assay: TUNEL assay of apoptotic cells in MDA tumor xenografts; format: in vivo, athymic nude mice; conditions: Sal-B 80 mg/kg three times per week; untreated tumors 3.1±1.8; P<0.05
Description: as §2
Apoptotic cells in MDA tumor xenografts were also analyzed by a terminal deoxynucleotidyl transferase-mediated dUTP nick end labeling (TUNEL) assay using the TdT-FragEL DNA Fragmentation Detection Kit (EMD Millipore, Burlington, MA) as previously described (Li H, et al., “Cellular uptake and anticancer activity of salvianolic acid B phospholipid complex loaded nanoparticles in head and neck cancer and precancer cells,” Colloids Surf B Biointerfaces. 2016; 147: 65-72). […]

Bcl-xL = assay: Western blot of Bcl-xL expression in MDA and MCF-7 cells; format: cell-based, human; conditions: Sal-B 50 μM and 100 μM, 24 hours
Description: (§3) The immunohistochemical results were consistent with those from Western blotting (FIG. 7, panel A). Western blot analysis was used to determine the expression of apoptosis-related proteins Bcl-XL, survivin, caspase-3 and caspase-8 (FIG. 7, panel A). β-actin was used as an internal control for Western blotting. The MCD-7 and MDA cells were treated with Sal-B (50 μM and 100 μM) and doxorubicin (0.1 μM and 1 μM), respectively, for 24 hours. Proteins were extracted from the cells with RIPA lysis buffer (Santa Cruz Biotechnology, Santa Cruz, CA) and the protein concentrations were quantified with Bio-Rad protein quantification kit. Whole-cell proteins were separated on 8% SDS-polyacrylamide gel, transferred to the polyvinylidene difluoride membrane (Bio-Rad), and then probed with the indicated primary antibodies overnight at 4° C. Washed blots were then incubated with horseradish peroxidase-conjugated anti-rabbit, anti-mouse, or anti-goat antibody (Santa Cruz Biotechnology), respectively, for one hour at room temperature. Blots were developed and visualized with ECL detection system (Bio-Rad).

GM3 synthase = assay: Western blot of GM3 synthase expression in MDA and MCF-7 cells; format: cell-based, human
Description: as §3
To understand the mechanism underlying increased ceramide accumulation, the expression levels of GCS and GM3 synthase were measured by Western blot analysis in MDA and MCF-7 cells treated by various concentrations of Sal-B (FIG. 8). […]

p-ERK = assay: Western blot of p-ERK expression in MCF-7 and MDA cells; format: cell-based, human; conditions: different concentrations of Sal-B, 24 hours
Description: as §3
Because phospho-p44/42 extracellular signal-regulated kinases (p-ERK) is a key enzyme in the MAPK signal pathway, the expression of p-ERK was also investigated in MCF-7 and MDA cells following exposure to different concentrations of Sal-B for 24 hours.

Compound: O=C(/C=C/c1ccc(O)c2c1[C@H](C(=O)O[C@H](Cc1ccc(O)c(O)c1)C(=O)O)[C@@H](c1ccc(O)c(O)c1)O2)O[C@H](Cc1ccc(O)c(O)c1)C(=O)O [Sal-B, Salvianolic acid B]
- colony formation capability relative to control cells (MDA-MB-231 cells [1]; Sal-B 1 μM for 24 hours): approximately 69%
- colony formation capability (MDA-MB-231 cells [1]; Sal-B 100 μM for 24 hours): complete inhibition
- changes in the cell cycle phases (MCF-7 cells): no significant changes
- changes in the cell cycle phases (MDA-MB-231 cells [2]): no significant changes
- PCNA levels in tumor xenografts [3]: higher in untreated MDA tumor xenografts
- number of apoptotic cells (TUNEL) (MDA tumor xenografts): 12.2±3.2
- Bcl-xL protein expression (Bcl-xL; MCF-7 cells): downregulated
- Bcl-xL protein expression (Bcl-xL; MDA cells): downregulated
- expression of GM3 synthase (normalized to β-actin) (GM3 synthase; MCF-7 cells, Sal-B 100 μM): significantly diminished
- expression of GM3 synthase (normalized to β-actin) (GM3 synthase; MDA cells, Sal-B at both 50 μM and 100 μM): significantly diminished
- p-ERK expression (normalized to β-actin) (p-ERK; MCF-7 cells): down-regulated
- p-ERK expression (normalized to β-actin) (p-ERK; MDA cells): down-regulated
